≈ marks a conversion by molar mass, not a printed value.

A short description of series [1]: Equilibrium shake flask solubility assay, thermodynamic solubility in citrate buffer pH 4. The format is physicochemical. Conditions: citrate buffer pH 4, 24 h, room temperature; for solubility at 24 h: citrate buffer, pH 4, aqueous buffer, thermodynamic from solid, read-out: Solubility in aqueous Citrate buffer pH4. The procedure:
4b) Thermodynamic Solubility in Citrate Buffer pH 4
Thermodynamic solubility was determined by an equilibrium shake flask method [Literature: Edward H. Kerns and Li Di (2008) Solubility Methods in: Drug-like Properties: Concepts, Structure Design and Methods, p276-286. Burlington, Mass.: Academic Press].
A saturated solution of the drug was prepared and the solution was mixed for 24 h to ensure that equilibrium has been reached. The solution was centrifuged to remove the insoluble fraction and the concentration of the compound in solution was determined using a standard calibration curve.
To prepare the sample, 1.5 mg solid compound was weighed in a 4 ml glass vial. 1 ml Citrate buffer pH 4 was added. The suspension was put on a stirrer and mixed for 24 hrs at room temperature. The solution was centrifuged afterwards. To prepare the sample for the standard calibration, 0.6 mg solid sample was dissolved in 19 ml acetonitrile/water 1:1. After sonification the solution was filled up with acetonitrile/water 1:1 to 20 ml.
Sample and standards were quantified by HPLC with UV-detection. For each sample two injection volumes (5 and 50 μl) in triplicates were made. Three injection volumes (5 μl, 10 μl and 20 μl) were made for the standard.
(§1) The areas of sample- and standard injections as well as the calculation of the solubility value (in mg/l) were determined by using HPLC software (Waters Empower 2 FR).

Another series in a line: Caco-2 permeation assay. Format: in vitro ADME, human. Conditions: human; for Papp A→B at 2 h, 2 µM / Papp B→A at 2 h, 2 µM: Caco-2, pH 7.2, Caco-2, 2 μM test compound; for Papp A→B at 2 h, 2 µM: apical to basolateral, read-out: Papp A-B (Mari); for Papp B→A at 2 h, 2 µM: basolateral to apical, read-out: Papp B-A (Mari); for efflux ratio at 2 h, 2 µM: Caco-2, pH 7.2, Caco-2, 2 μM, Papp B-A / Papp A-B. The procedure:
(§2) 5. Caco-2 Permeation Assay:
(§3) Caco-2 cells (purchased from DSMZ Braunschweig, Germany) were seeded at a density of 4.5×10^4 cells per well on 24 well insert plates, 0.4 μm pore size, and grown for 15 days in DMEM medium supplemented with 10% fetal bovine serum, 1% GlutaMAX (100×, GIBCO), 100 U/mL penicillin, 100 μg/mL streptomycin (GIBCO) and 1% non essential amino acids (100 ×). Cells were maintained at 37° C. in a humified 5% CO2 atmosphere. Medium was changed every 2-3 day. Before running the permeation assay, the culture medium was replaced by a FCS—free hepes-carbonate transport buffer (pH 7.2). For assessment of monolayer integrity the transepithelial electrical resistance (TEER) was measured. Test compounds were predissolved in DMSO and added either to the apical or basolateral compartment in final concentration of 2 μM in transport buffer. Before and after 2 h incubation at 37° C. samples were taken from both compartments. Analysis of compound content was done after precipitation with methanol by LC/MS/MS analysis. Permeability (Papp) was calculated in the apical to basolateral (A→B) and basolateral to apical (B→A) directions. The apparent permeability was calculated using following equation: Papp=(Vr/Po)(1/S)(P2/t)
(§4) Where Vr is the volume of medium in the receiver chamber, Po is the measured peak area or height of the test drug in the donor chamber at t=o, S the surface area of the monolayer, P2 is the measured peak area of the test drug in the acceptor chamber after 2 h of incubation, and t is the incubation time. The efflux ratio basolateral (B) to apical (A) was calculated by dividing the Papp B-A by the Papp A-B. In addition the compound recovery was calculated. The following reference compounds were used for the classification of the permeability class: Antipyrine, Pyrazosin, Verapamil, Fluvastatin, Cimetidine, Ranitidine, Atenolol, Sulfasalazine.
In general terms: Caco-2 cells form a polarised layer with tight junctions and transporters.

The nature of series [2]: Equilibrium shake flask solubility assay, thermodynamic solubility in water pH 6.5. The format is physicochemical. The following applies: phosphate buffer pH 6.5, 24 h, room temperature. The procedure: 4. Equilibrium Shake Flask Solubility Assay:
4a) Thermodynamic Solubility in Water
The thermodynamic solubility of compounds in water was determined by an equilibrium shake flask method (see for example: E. H. Kerns, L. Di: Drug-like Properties: Concepts, Structure Design and Methods, 276-286, Burlington, Mass., Academic Press, 2008). A saturated solution of the drug was prepared and the solution was mixed for 24 h to ensure that equilibrium was reached. The solution was centrifuged to remove the insoluble fraction and the concentration of the compound in solution was determined using a standard calibration curve. To prepare the sample, 2 mg solid compound was weighed in a 4 mL glass vial. 1 mL phosphate buffer pH 6.5 was added. The suspension was stirred for 24 hrs at room temperature. The solution was centrifuged afterwards. To prepare the sample for the standard calibration, 2 mg solid sample was dissolved in 30 mL acetonitrile. After sonification the solution was diluted with water to 50 mL. Sample and standards were quantified by HPLC with UV-detection. For each sample two injection volumes (5 and 50 μl) in triplicates were made. Three injection volumes (5 μl, 10 μl and 20 μl) were made for the standard.
as §1

Another series concerns Caco-2 cell monolayers. The experiment in a line: Caco-2 permeation assay. The format is in vitro ADME, human. The following applies: for Papp A-B (Mari) / Papp B-A (Mari): Caco-2, 2 μM test compound; for Papp A-B (Mari): apical to basolateral; for Papp B-A (Mari): basolateral to apical. The procedure: as §2, §3, §4

The solubility is how much of the substance goes into solution per volume. The Papp A→B is how fast a substance crosses the layer from the apical side. What is called Papp B→A is how fast a substance crosses the layer from the basolateral side. A word on the efflux ratio: it is the permeability from basolateral to apical divided by that in the opposite direction, in the common usage. Take `COc1cc(F)ccc1-c1cc(Nc2cc(CS(C)(=N)=O)cc(C)n2)ncc1F` (racemic) [Example 4, (rac)-5-Fluoro-4-(4-fluoro-2-methoxyphenyl)-N-{6-methyl-4-[(S-methylsulfonimidoyl)methyl]pyridin-2-yl}pyridin-2-amine]: the solubility at 24 h in series [1] was determined as 470 µg/mL (≈ 1120 µM). In the series “Caco-2 permeation assay”, the Papp A→B at 2 h, 2 µM was determined as 19.6 ×10⁻⁶ cm/s; the Papp B→A at 2 h, 2 µM is 14.9 ×10⁻⁶ cm/s; the efflux ratio at 2 h, 2 µM turned out to be 0.76.

Turning to `COc1cc(F)ccc1-c1cc(Nc2cc(CS(=N)(=O)CCO)ccn2)ncc1F` (racemic) [Example 8, (rac)-2-{S-[(2-{[5-Fluoro-4-(4-fluoro-2-methoxyphenyl)pyridin-2-yl]amino}pyridin-4-yl)methyl]sulfonimidoyl}ethanol], the solubility at 24 h in series [1] was determined as 730 µg/mL (≈ 1680 µM). Further, in “Caco-2 permeation assay”, the Papp A→B at 2 h, 2 µM turned out to be 4.1 ×10⁻⁶ cm/s; the Papp B→A at 2 h, 2 µM was 24.6 ×10⁻⁶ cm/s; the efflux ratio at 2 h, 2 µM came out at 6.

As to `COc1cc(F)ccc1-c1cc(Nc2cc(CS(=N)(=O)CCN)ccn2)ncc1F` (racemic) [Example 9, (rac)-N-(4-{[S-(2-Aminoethyl)sulfonimidoyl]methyl}pyridin-2-yl)-5-fluoro-4-(4-fluoro-2-methoxyphenyl)pyridin-2-amine], in series [1], the solubility at 24 h was 660 µg/mL (≈ 1520 µM).

As to `CCOC(=O)N=S(C)(=O)Cc1ccnc(Nc2cc(-c3ccc(F)cc3OC)c(F)cn2)c1` (racemic) [Example 11, (rac)-Ethyl{[(2-{[5-fluoro-4-(4-fluoro-2-methoxyphenyl)pyridin-2-yl]amino}pyridin-4-yl)methyl](methyl)oxido-λ^6-sulfanylidene}carbamate], in series [1], the solubility at 24 h worked out at 185 µg/mL (≈ 388 µM).

Take `CCNC(=O)N=S(C)(=O)Cc1ccnc(Nc2cc(-c3ccc(F)cc3OC)c(F)cn2)c1` (racemic) [Example 12, (rac)-1-Ethyl-3-{[(2-{[5-fluoro-4-(4-fluoro-2-methoxyphenyl)pyridin-2-yl]amino}pyridin-4-yl)methyl](methyl)oxido-λ^6-sulfanylidene}urea]: in series [1], the solubility at 24 h was 34 µg/mL (≈ 71.5 µM).

As for `COc1cc(F)ccc1-c1cc(Nc2cc(CS(C)(=N)=O)cc(F)n2)ncc1F` (racemic) [Example 17, (rac)-5-Fluoro-4-(4-fluoro-2-methoxyphenyl)-N-{6-fluoro-4-[(S-methylsulfonimidoyl)methyl]pyridin-2-yl}pyridin-2-amine], the solubility at 24 h in series [1] came out at 3 µg/mL (≈ 7.1 µM). In the series “Caco-2 permeation assay”, the Papp A→B at 2 h, 2 µM stood at 14.1 ×10⁻⁶ cm/s; the basolateral-to-apical permeability (Papp B→A) at 2 h, 2 µM was found to be 13.5 ×10⁻⁶ cm/s; the efflux ratio at 2 h, 2 µM was 0.96.

Take `COc1cc(F)ccc1-c1cc(Nc2cc(CS(C)(=N)=O)cc(C(F)(F)F)n2)ncc1F` (racemic) [Example 21, (rac)-5-Fluoro-4-(4-fluoro-2-methoxyphenyl)-N-{4-[(S-methylsulfonimidoyl)methyl]-6-(trifluoromethyl)pyridin-2-yl}pyridin-2-amine]: in “Caco-2 permeation assay”, the Papp A→B at 2 h, 2 µM worked out at 5.1 ×10⁻⁶ cm/s; the basolateral-to-apical permeability (Papp B→A) at 2 h, 2 µM amounted to 3.3 ×10⁻⁶ cm/s; the efflux ratio at 2 h, 2 µM was determined as 0.64.

Consider `CCS(=N)(=O)Cc1ccnc(Nc2cc(-c3ccc(F)cc3OC)c(F)cn2)c1` (racemic) [Example 30, (rac)-N-{4-[(S-Ethylsulfonimidoyl)-methyl]pyridin-2-yl}-5-fluoro-4-(4-fluoro-2-methoxyphenyl)pyridin-2-amine], for which, in the series “Caco-2 permeation assay”, the Papp A→B at 2 h, 2 µM came to 18.6 ×10⁻⁶ cm/s; the Papp B→A at 2 h, 2 µM came out at 17.2 ×10⁻⁶ cm/s; the efflux ratio at 2 h, 2 µM came to 0.92.

For `COc1cc(F)ccc1-c1cc(Nc2cc(CS(C)(=O)=NC#N)ccn2)ncc1F` (single isomer, unassigned) [Example 10, {[(2-{[5-Fluoro-4-(4-fluoro-2-methoxyphenyl)pyridin-2-yl]amino}pyridin-4-yl)methyl](methyl)oxido-λ^6-sulfanylidene}cyanamide], the solubility at 24 h in series [1] was 102 µg/mL (≈ 238 µM).

Turning to `COc1cc(F)ccc1-c1cc(Nc2cc(CS(C)(=N)=O)ccn2)ncc1F` (single isomer, unassigned; (+)) [Example 2, (+)-5-Fluoro-4-(4-fluoro-2-methoxyphenyl)-N-{4-[(S-methylsulfonimidoyl)methyl]pyridin-2-yl}pyridin-2-amine], in series [2] (phosphate buffer, pH 6.5, aqueous buffer, thermodynamic from solid), the solubility at 24 h turned out to be 25 µg/mL (≈ 61.8 µM). Further, in “Caco-2 permeation assay”, the Papp A→B at 2 h, 2 µM is 16.6 ×10⁻⁶ cm/s and the basolateral-to-apical permeability (Papp B→A) at 2 h, 2 µM turned out to be 18.6 ×10⁻⁶ cm/s.

Turning to `COc1cc(F)ccc1-c1cc(Nc2cc(CS(C)(=N)=O)cc(C(F)(F)F)n2)ncc1F` (single isomer, unassigned; (+)) [Example 22, (+)-5-Fluoro-4-(4-fluoro-2-methoxyphenyl)-N-{4-[(S-methylsulfonimidoyl)methyl]-6-(trifluoromethyl)pyridin-2-yl}pyridin-2-amine], in series [1], the solubility at 24 h was 52 µg/mL (≈ 110 µM). In the series “Caco-2 permeation assay”, the Papp A→B at 2 h, 2 µM is 4.8 ×10⁻⁶ cm/s; the basolateral-to-apical permeability (Papp B→A) at 2 h, 2 µM was 5.3 ×10⁻⁶ cm/s; the efflux ratio at 2 h, 2 µM stood at 1.1.

`COc1cc(F)ccc1-c1cc(Nc2cc(CS(C)(=N)=O)ccn2)ncc1F` (single isomer, unassigned; (-)) [Example 3, (−)-5-Fluoro-4-(4-fluoro-2-methoxyphenyl)-N-{4-[(S-methylsulfonimidoyl)methyl]pyridin-2-yl}pyridin-2-amine]: in series [2], the “Solubility in water at pH 6.5” value was found to be 27 mg/l. In addition, the solubility at 24 h in series [1] turned out to be 699 µg/mL (≈ 1730 µM). For the same molecule, in the series with Caco-2 cell monolayers, the “Papp A-B (Mari)” value was 13.3 ×10⁻⁶ cm/s and the “Papp B-A (Mari)” value came to 19.7 ×10⁻⁶ cm/s.

For `COc1cc(F)ccc1-c1cc(Nc2cc(CS(C)(=N)=O)cc(C(F)(F)F)n2)ncc1F` (single isomer, unassigned; (-)) [Example 23, (−)-5-Fluoro-4-(4-fluoro-2-methoxyphenyl)-N-{4-[(S-methylsulfonimidoyl)methyl]-6-(trifluoromethyl)pyridin-2-yl}pyridin-2-amine], in series [1], the “Solubility in aqueous Citrate buffer pH4” value was determined as 45 mg/l. In addition, in the series on Caco-2 cell monolayers, the “Papp A-B (Mari)” value was determined as 4.7 ×10⁻⁶ cm/s and the “Papp B-A (Mari)” value was found to be 6.2 ×10⁻⁶ cm/s. For the same molecule, the Efflux ratio with Caco-2 cell monolayers (Caco-2, 2 μM, Papp B-A / Papp A-B) is 1.3.

Regarding `COc1cc(F)ccc1-c1cc(Nc2cc(CS(C)(=N)=O)ccn2)ncc1F.Cl` (single isomer, unassigned; enantiomer 2) [Example 14, 5-Fluoro-4-(4-fluoro-2-methoxyphenyl)-N-{4-[(S-methylsulfonimidoyl)methyl]pyridin-2-yl}pyridin-2-amine hydrochloride; enantiomer 2], the solubility at 24 h in series [1] was determined as 600 µg/mL.

Values taken from patent publication US9650340B2, “5-fluoro-N-(pyridin-2-yl)pyridin-2-amine derivatives containing a sulfoximine group” (BAYER PHARMA AKTIENGESELLSCHAFT, priority 2012, dated 2017).
